Experimental data reported in patent publication US12077503B2, “Substituted cyclic amides and their use as herbicides” (FMC CORPORATION, priority 2015, dated 2024).
Where two headings read alike, the source gives them in different places.

Key:
Experiment in all cases: Test A preemergence
Assay type in all cases: in vivo
[1] = tested on: ragweed (common ragweed, Ambrosia elatior); details: Ambrosia artemisiifolia, pre-emergence, 240 h; for pest or weed control at 500 g/ha: 500 g ai/ha; for pest or weed control at 125 g/ha: 125 g ai/ha
Summary of the method: (§1)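 Each rating is a visual injury score from 0 to 100 given about 10 d after treatment, judged against untreated controls kept alongside in the greenhouse. In loam soil–sand blend, seeds got a preemergence directed soil spray, while postemergence plants were 2 to 10 cm tall at spraying.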

[2] = tested on: ryegrass, Italian (Italian ryegrass, Lolium multiflorum); details: Lolium multiflorum, pre-emergence, 240 h; for pest or weed control at 500 g/ha: 500 g ai/ha; for pest or weed control at 125 g/ha: 125 g ai/ha
Summary of the method: as §1

[3] = tested on: barnyardgrass (Echinochloa crus-galli); details: Echinochloa crus-galli, pre-emergence, 240 h; for pest or weed control at 500 g/ha: 500 g ai/ha; for pest or weed control at 125 g/ha: 125 g ai/ha
Summary of the method: as §1

[4] = tested on: pigweed (Amaranthus retroflexus); details: Amaranthus retroflexus, pre-emergence, 240 h; for pest or weed control at 500 g/ha: 500 g ai/ha; for pest or weed control at 125 g/ha: 125 g ai/ha
[5] = tested on: giant foxtail (Setaria faberii); details: Setaria faberi, pre-emergence, 240 h; for pest or weed control at 500 g/ha: 500 g ai/ha; for pest or weed control at 125 g/ha: 125 g ai/ha
Summary of the method: as §1

[6] = preemergence, 0 to 100 scale (0 no effect, 100 complete control), read-out: Plant response rating, Ragweed
[7] = Preemergence, 0 to 100 scale (0 no effect, 100 complete control), read-out: Plant response rating, Ragweed
[8] = preemergence, 0 to 100 scale (0 no effect, 100 complete control), read-out: Plant response rating, Ryegrass, Italian
[9] = Preemergence, 0 to 100 scale (0 no effect, 100 complete control), read-out: Plant response rating, Ryegrass, Italian
[10] = preemergence, 0 to 100 scale (0 no effect, 100 complete control), read-out: Plant response rating, Barnyardgrass
[11] = Preemergence, 0 to 100 scale (0 no effect, 100 complete control), read-out: Plant response rating, Barnyardgrass
[12] = preemergence, 0 to 100 scale (0 no effect, 100 complete control), read-out: Plant response rating, Pigweed
[13] = Preemergence, 0 to 100 scale (0 no effect, 100 complete control), read-out: Plant response rating, Pigweed
[14] = preemergence, 0 to 100 scale (0 no effect, 100 complete control), read-out: Plant response rating, Foxtail, Giant
[15] = Preemergence, 0 to 100 scale (0 no effect, 100 complete control), read-out: Plant response rating, Foxtail, Giant
[16] = preemergence, 0 to 100 scale where 0 is no effect and 100 is complete control, read-out: Ragweed plant response rating
[17] = preemergence, 0 to 100 scale where 0 is no effect and 100 is complete control, read-out: Barnyardgrass plant response rating
[18] = preemergence, 0 to 100 scale where 0 is no effect and 100 is complete control, read-out: Pigweed plant response rating
[19] = preemergence, 0 to 100 scale where 0 is no effect and 100 is complete control, read-out: Foxtail, Giant plant response rating
[20] = preemergence, visual rating after approx. 10 d, 0 to 100 scale where 0 is no effect and 100 is complete control, read-out: Plant response rating, Ragweed
[21] = preemergence, visual rating after approx. 10 d, 0 to 100 scale where 0 is no effect and 100 is complete control, read-out: Plant response rating, Ryegrass, Italian
[22] = preemergence, visual rating after approx. 10 d, 0 to 100 scale where 0 is no effect and 100 is complete control, read-out: Plant response rating, Barnyardgrass
[23] = preemergence, visual rating after approx. 10 d, 0 to 100 scale where 0 is no effect and 100 is complete control, read-out: Plant response rating, Pigweed
[24] = preemergence, visual rating after approx. 10 d, 0 to 100 scale where 0 is no effect and 100 is complete control, read-out: Plant response rating, Foxtail, Giant
[25] = preemergence, 0 to 100 scale, 0 = no effect, 100 = complete control, read-out: Plant response rating, Ragweed
[26] = preemergence, 0 to 100 scale, 0 = no effect, 100 = complete control, read-out: Plant response rating, Barnyardgrass
[27] = preemergence, 0 to 100 scale, 0 = no effect, 100 = complete control, read-out: Plant response rating, Pigweed
[28] = preemergence, 0 to 100 scale, 0 = no effect, 100 = complete control, read-out: Plant response rating, Foxtail, Giant
[29] = preemergence, visual injury rating, 0 to 100 scale where 0 is no effect and 100 is complete control, approximately 10 d, read-out: Ragweed plant response rating
[30] = preemergence, visual injury rating, 0 to 100 scale where 0 is no effect and 100 is complete control, approximately 10 d, read-out: Ryegrass, Italian plant response rating
[31] = preemergence, 0 to 100 scale where 0 is no effect and 100 is complete control, read-out: Ryegrass, Italian plant response rating
[32] = preemergence, visual injury rating, 0 to 100 scale where 0 is no effect and 100 is complete control, approximately 10 d, read-out: Barnyardgrass plant response rating
[33] = preemergence, visual injury rating, 0 to 100 scale where 0 is no effect and 100 is complete control, approximately 10 d, read-out: Pigweed plant response rating
[34] = preemergence, visual injury rating, 0 to 100 scale where 0 is no effect and 100 is complete control, approximately 10 d, read-out: Foxtail, Giant plant response rating

Compound | pest or weed control at 500 g/ha [1, 6] | pest or weed control at 125 g/ha [1, 7] | pest or weed control at 500 g/ha [2, 8] | pest or weed control at 125 g/ha [2, 9] | pest or weed control at 500 g/ha [3, 10] | pest or weed control at 125 g/ha [3, 11] | pest or weed control at 500 g/ha [4, 12] | pest or weed control at 125 g/ha [4, 13] | pest or weed control at 500 g/ha [5, 14] | pest or weed control at 125 g/ha [5, 15] | pest or weed control at 500 g/ha [1, 16] | pest or weed control at 500 g/ha [3, 17] | pest or weed control at 500 g/ha [4, 18] | pest or weed control at 500 g/ha [5, 19] | pest or weed control at 125 g/ha [1, 20] | pest or weed control at 125 g/ha [2, 21] | pest or weed control at 125 g/ha [3, 22] | pest or weed control at 125 g/ha [4, 23] | pest or weed control at 125 g/ha [5, 24] | pest or weed control at 125 g/ha [1, 29] | other results
CN1CC[C@H](c2cccc(C(F)(F)F)c2)[C@@H](C(=O)Nc2ccc(F)c(F)c2F)C1=O [Compound 1395] | 0% | 0% | 40% | 50% | 90% | 90% | 0% | 0% | 90% | 90% |  |  |  |  |  |  |  |  |  |  | 
CSc1ccccc1NC(=O)[C@H]1C(=O)N(C)C[C@@H]1c1ccc(F)c(C)c1 [Compound 1312] |  | 70% |  | 60% |  | 90% |  | 20% |  | 90% | 100% | 100% | 60% | 100% |  |  |  |  |  |  | 
CC(F)(F)c1cccc([C@H]2CNC(=O)[C@@H]2C(=O)Nc2ccc(F)cc2F)c1 [Compound 781] |  |  |  |  |  |  |  |  |  |  |  |  |  |  | 0% | 20% | 80% | 0% | 90% |  | pest or weed control at 500 g/ha ([1]; Preemergence, visual injury vs untreated controls after approximately 10 d, read-out: Ragweed plant response rating (0 to 100 scale where 0 is no effect and 100 is complete control)): 0%; pest or weed control at 500 g/ha ([2]; Preemergence, visual injury vs untreated controls after approximately 10 d, read-out: Ryegrass, Italian plant response rating (0 to 100 scale where 0 is no effect and 100 is complete control)): 50%; pest or weed control at 500 g/ha ([3]; Preemergence, visual injury vs untreated controls after approximately 10 d, read-out: Barnyardgrass plant response rating (0 to 100 scale where 0 is no effect and 100 is complete control)): 100%; pest or weed control at 500 g/ha ([4]; Preemergence, visual injury vs untreated controls after approximately 10 d, read-out: Pigweed plant response rating (0 to 100 scale where 0 is no effect and 100 is complete control)): 70%; pest or weed control at 500 g/ha ([5]; Preemergence, visual injury vs untreated controls after approximately 10 d, read-out: Foxtail, Giant plant response rating (0 to 100 scale where 0 is no effect and 100 is complete control)): 100%
CCc1ccc([C@H]2CNC(=S)[C@@H]2C(=O)Nc2ccccc2SC)cc1 [Compound 763] |  |  |  |  |  |  |  |  |  |  |  |  |  |  | 0% | 0% | 80% | 0% | 0% |  | pest or weed control at 500 g/ha [1, 25]: 0%; pest or weed control at 500 g/ha [3, 26]: 80%; pest or weed control at 500 g/ha [4, 27]: 30%; pest or weed control at 500 g/ha [5, 28]: 50%
N#Cc1cc([C@H]2CNC(=O)[C@]2(O)C(=O)Nc2cccc(F)c2F)ccc1F [Compound 1374] | 0% | 0% | 0% | 0% | 0% | 0% | 0% | 0% | 0% | 0% |  |  |  |  |  |  |  |  |  |  | 
Cc1ccc([C@H]2CCN(C)C(=O)[C@@H]2C(=O)Nc2cccc(Cl)c2F)cc1 [Compound 1223] |  |  |  |  |  |  |  |  |  |  | 20% | 90% | 0% | 90% |  |  |  |  |  | 0% | pest or weed control at 125 g/ha [2, 30]: 0%; pest or weed control at 500 g/ha [2, 31]: 0%; pest or weed control at 125 g/ha [3, 32]: 90%; pest or weed control at 125 g/ha [4, 33]: 0%; pest or weed control at 125 g/ha [5, 34]: 90%
Cc1cc([C@H]2CN(C)C(=O)[C@@H]2C(=O)Nc2ccccc2F)no1 [Compound 1194] |  |  |  |  |  |  |  |  |  |  | 0% | 30% | 0% | 20% |  |  |  |  |  | 0% | pest or weed control at 125 g/ha [2, 30]: 0%; pest or weed control at 500 g/ha [2, 31]: 0%; pest or weed control at 125 g/ha [3, 32]: 0%; pest or weed control at 125 g/ha [4, 33]: 0%; pest or weed control at 125 g/ha [5, 34]: 0%
O=C1NC[C@H](c2ccc(C(F)(F)F)cc2)C1C(=O)Nc1c(F)cccc1CO (some centres unmarked) [Compound 1243] |  |  |  |  |  |  |  |  |  |  | 0% | 0% | 0% | 0% |  |  |  |  |  | 0% | pest or weed control at 125 g/ha [2, 30]: 0%; pest or weed control at 500 g/ha [2, 31]: 0%; pest or weed control at 125 g/ha [3, 32]: 0%; pest or weed control at 125 g/ha [4, 33]: 0%; pest or weed control at 125 g/ha [5, 34]: 0%
CN1C[C@H](c2ccc(C(F)(F)F)nc2)[C@@H](C(=O)Nc2ccc(F)c(F)c2F)C1=O [Compound 1373] | 100% | 100% | 90% | 60% | 100% | 90% | 100% | 90% | 100% | 100% |  |  |  |  |  |  |  |  |  |  | 
O=C1NC[C@H](c2cc(F)c(F)c(F)c2)[C@H]1C(=O)Nc1ccc(F)c(F)c1F [Compound 756] |  |  |  |  |  |  |  |  |  |  |  |  |  |  | 0% | 30% | 100% | 40% | 100% |  | pest or weed control at 500 g/ha [1, 25]: 30%; pest or weed control at 500 g/ha ([2]; preemergence, 0 to 100 scale, 0 = no effect, 100 = complete control, read-out: Plant response rating, Ryegrass, Italian): 70%; pest or weed control at 500 g/ha [3, 26]: 100%; pest or weed control at 500 g/ha [4, 27]: 70%; pest or weed control at 500 g/ha [5, 28]: 100%
